Data from patent US20150352034A1, “Personal Care Products Containing Microalgae or Extracts Thereof” (Solazyme, Inc., priority 2014, published 2015).

Columns and labels:
[1] = tested on: hyaluronic acid synthesis in fibroblasts; assay: Hyaluronic Acid Assay (ELISA, fibroblast culture medium); type: cell-based
Experimental: (§1) The type I C-peptide fragment was measured because procollagen, a precursor to mature collagen, is cleaved in collagen and type I C-peptide fragments in a 1:1 ratio. By measuring the amount of type I C-peptide fragments in the tissue medium, collagen production was measured. Elastin was measured directly from the cell culture medium. Hyaluronic acid was measured in the tissue culture media. All measurements were performed using an ELISA based method.
(§2) Powder materials were prepared by combining 1 gram of the powder material with either 10 ml ultrapure water or 10 ml of DMSO. The mixtures were incubated for one hour at room temperature on a rocking platform to saturate the extraction medium with the test material. The mixture was then centrifuged to separate the saturated extract solution from the undissolved solid materials. The oil based materials were prepared as a stock solution in DMSO and then diluted into the culture media such that the final concentration of DMSO was 1%. A 1% DMSO control was included to account for any effect the solvent might have when evaluating the effect of the oils or DMSO prepared powders.
The fibroblast cell culture was prepared by seeding fibroblasts into the individuals wells of a 24-well plate in 0.5 ml of Fibroblast Growth Media (FGM) and incubated overnight at 37±2° C. and at 5±1% CO2. The media was removed via aspiration to eliminate non-adherent cells and replaced with 0.5 ml of fresh FGM. The medium was changed every 48 to 72 hours until the cells growth reached confluency. Once confluent, the cells were treated for 24 hours with DMEM supplemented with 1.5% FBS to wash out any growth factors present in the normal culture media.
The prepared fibroblast cell cultures were then treated with the prepared test materials at the aforementioned concentrations dissolved in FGM with 1.5% FBS. TGF-B at a concentration of 50 ng/ml was used as a positive control for collagen and elastin, and dibutyrl cAMP at a concentration of 0.1 mM was used as a positive control for hyaluronic acid. Untreated cells received DMEM with 1.5% FBS. The cells were incubated for 48 hours and then either frozen or assayed immediately. Materials were tested in triplicate.
A series of hyaluronic acid standards was prepared ranging from 50 ng/ml to 3,200 ng/ml. Next, 100 μl of each standard (in duplicate) and sample was transferred to a well in an incubation plate. After adding 50 μl of detection solution to each well (except the reagent blank wells) the plate was incubated for 1±0.25 hour at 37±2° C. […] After this final incubation 50 μl of stop solution was added to each well and the absorbance of the plate was measured at 405 nm using a plate reader.

[2] = tested on: elastin synthesis in fibroblasts; assay: Elastin Assay (ELISA, fibroblast culture medium); type: cell-based; conditions: 48 h
Experimental: as §1
as §2, with “powders. […]” for “powders.”
A set of alpha-elastin standards was generated ranging from 0 to 100 ng/ml. […] After the final incubation, the plate was read at 460 nm using a plate reader.

[3] = tested on: procollagen synthesis in fibroblasts; assay: Type I Collagen Assay (type I C-peptide ELISA, fibroblast culture medium); type: cell-based; conditions: 48 h
Experimental: as §1
as §2, with “powders. […]” for “powders.”
A series of type I C-peptide standards were prepared ranging from 0 ng/ml to 640 ng/ml for the procollagen assay. […] After the incubation 100 μl of stop solution (1 N sulfuric acid) was added to each well and the plate was read using a microplate reader at 450 nm.

[4] = tested on: thymine dimers in genomic DNA of MatTek's EpiDerm tissue; assay: Thymine dimer formation after UVB; type: cell-based, human; conditions: 300 mJ/cm^2 UVB, then 1 mM, 100 μl topically for 24 hours
Experimental: This method was designed to evaluate changes in tissue DNA thymine dimer content after exposure to UVB. The testing system used for this assay was MatTek's EpiDerm tissue, a skin model that consists of normal human-derived epidermal keratinocytes cultured to form a multilayered, highly differentiated model of the human epidermis. For this study, the tissues were exposed to UVB (300 mJ/cm^2) and then treated topically for 24 hours with the test material. Following the treatment the DNA was extracted from the EpiDerm tissues and assayed for thymine dimer content. For the assay, samples of the DNA were immobilized on a solid membrane support and incubated with an antibody that recognizes thymine dimers in double stranded DNA. The primary antibody was then detected using a secondary antibody conjugated to a fluorescent dye. The membrane was then scanned using an excitation laser and emission filter combination appropriate for the fluorescent dye. With this method, the fluorescence intensity of each sample is proportional to the amount of the thymine dimers present in the sample. […] UVB lamp intensity was measured using a UVX radiometer with a probe specific for UVB (detects 260-360 nm, max absorbance at 310 nm, calibrated at 310 nm) to determine exposure times required for the appropriate UVB dose. […] Extracted DNA was quantified via a fluorometric assay. […]

MatTek's EpiDerm tissue = assay: UVB protection assay, MTT tissue viability; type: cell-based, human; conditions: 300 mJ/cm^2 UVB, then 1 mM, 100 μl topically for 24 hours; in % (unit assumed)
Experimental: MatTek's EpiDerm tissue, a skin model that consists of normal human-derived epidermal keratinocytes cultured to form a multilayered, highly differentiated model of the human epidermis, was used to measure changes in tissue viability. The tissues were exposed to 300 mJ/cm^2 of UVB radiation and subsequently topically treated with the aforementioned test materials over a period of 24 hours. Materials were tested for their abilities to either maintain tissue viability after UVB exposure or aid in the recovery of tissue damaged by UVB radiation. […] The MTT analysis involved a colorimetric analysis of tissue metabolic activity, the increased presence of color indicating the presence of metabolically-active living cells. Reduction of MTT by mitochondria in viable cells results in purple formazin crystals; the intensity of the purple color is directly proportional to metabolically active cells in the tissue. The tissues were stored at 4° C. until used. […] One gram of WAF was mixed with 10 ml of water for one hour at room temperature. The WAF-water mixture was then centrifuged for 5 minutes to pellet any undissolved material and the supernatant was used for topical application. The Sample B, Sample F, and Sample A were applied topically without any further processing. […] Reduced MTT was subsequently extracted from the tissues and colorimetrically analyzed at 540 nm to determine tissue viability.

CCCC(=O)Nc1ncnc2c1ncn2[C@@H]1O[C@@H]2COP(=O)(O)O[C@H]2[C@H]1OC(=O)CCC [dBcAMP, dibutyrl cAMP]
Hyaluronic Acid ([1]; Table Va, 0.1 mM, 48 h): 494 ± 51 ng/mL
Hyaluronic Acid ([1]; Table Vb, 0.1 mM): 547 ± 31 ng/mL
Elastin ([2]; 0.1 mM): 43 ± 16 ng/mL
Type I C-Peptide ([3]; 0.1 mM): 3438 ± 277 ng/mL

Cc1c(C)c2c(c(C)c1O)CCC(C)(C(=O)O)O2 (stereo not shown) [Trolox, 6-hydroxy-2,5,7,8-tetramethylchroman-2-carboxylic acid]
Thymine Dimer Formation [4]: 296.5 ± 12.2 ng/mL
Viability (MatTek's EpiDerm tissue): 98 ± 5.6

TGF-B
Hyaluronic Acid ([1]; Table Va, 50 ng/ml, 48 h): 260 ± 34 ng/mL
Hyaluronic Acid ([1]; Table Vb, 50 ng/ml): 528 ± 96 ng/mL
Elastin ([2]; 50 ng/ml): 178 ± 6 ng/mL
Type I C-Peptide ([3]; 50 ng/ml): 5282 ± 178 ng/mL
